Key:
[1] = Cytotoxicity against human EU-1 cells assessed as inhibition of cell viability incubated for 24 to 72 hrs by CCK8 assay; format: functional, cell-based
[2] = molecular target: E3 ubiquitin-protein ligase Mdm2 (Homo sapiens) (UniProt Q00987); test: Induction of MDM2 degradation in human EU-1 cells assessed as increase in p53 level at 0.8 uM by Western blot analysis; format: cell-based; conditions: time <= 24.0 hrs, TDE = time-dependent effect
[3] = molecular target: E3 ubiquitin-protein ligase Mdm2 (Homo sapiens) (UniProt Q00987); test: Induction of MDM2 degradation in human EU-1 cells at 0.8 uM by Western blot analysis; format: cell-based; conditions: time <= 24.0 hrs, TDE = time-dependent effect
[4] = molecular target: E3 ubiquitin-protein ligase Mdm2 (Homo sapiens) (UniProt Q00987); test: Induction of MDM2 degradation in human EU-1 cells assessed as increase in p53 level incubated for 6 hrs by Western blot analysis; format: cell-based; conditions: dose <= 2.0 µM
[5] = molecular target: E3 ubiquitin-protein ligase Mdm2 (Homo sapiens) (UniProt Q00987); test: Induction of MDM2 degradation in human EU-1 cells incubated for 6 hrs by Western blot analysis; format: cell-based; conditions: dose <= 2.0 µM

Chain of E3 ubiquitin-protein ligase Mdm2 (Homo sapiens) (Q00987 whole entry, looked up): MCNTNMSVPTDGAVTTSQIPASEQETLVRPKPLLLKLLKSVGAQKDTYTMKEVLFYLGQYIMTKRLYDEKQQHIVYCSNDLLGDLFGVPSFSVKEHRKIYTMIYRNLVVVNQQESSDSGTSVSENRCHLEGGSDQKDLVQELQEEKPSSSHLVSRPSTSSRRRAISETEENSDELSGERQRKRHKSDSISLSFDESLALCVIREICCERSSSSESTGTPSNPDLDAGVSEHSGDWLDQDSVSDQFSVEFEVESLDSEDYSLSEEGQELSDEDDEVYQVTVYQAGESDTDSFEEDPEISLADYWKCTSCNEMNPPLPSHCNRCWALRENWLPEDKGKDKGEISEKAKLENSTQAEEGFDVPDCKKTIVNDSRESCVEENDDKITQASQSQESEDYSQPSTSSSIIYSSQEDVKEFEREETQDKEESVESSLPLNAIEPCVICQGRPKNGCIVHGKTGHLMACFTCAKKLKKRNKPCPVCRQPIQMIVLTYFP

Compound: CC(=O)CCCOc1cccc2c1C(=O)c1c(OCCCC(C)=O)cc(NC(C)=O)cc1C2=O
- IC50 [1]: > 100000 nM

Compound: C#CC(=O)Nc1cc(OCCCC(C)=O)c2c(c1)C(=O)c1cccc(OCCCC(C)=O)c1C2=O
- IC50 [1]: 190 nM

Compound: CC(=O)CCCOc1cc(NC(=O)CCl)cc2c1C(=O)c1c(O)cccc1C2=O
- IC50 [1]: 840 nM

Compound: CC(=O)CCCCOc1cccc2c1C(=O)c1c(OCCCCC(C)=O)cc(NC(=O)CCl)cc1C2=O
- IC50 [1]: 790 nM

Compound: CC(=O)CCCOc1cccc2c1C(=O)c1c(OCCCC(C)=O)cc(NC(=O)CCl)cc1C2=O
- Activity [2]: Tde
- Activity [3]: Tde
- Activity [4]: Dose-Dependent Effect
- IC50 [1]: 430 nM
- Activity [5]: Dose-Dependent Effect

Compound: C=CS(=O)(=O)Nc1cc(OCCCC(C)=O)c2c(c1)C(=O)c1cccc(OCCCC(C)=O)c1C2=O
- IC50 [1]: 3450 nM

Compound: CC(=O)CCOc1cccc2c1C(=O)c1c(OCCC(C)=O)cc(NC(=O)CCl)cc1C2=O
- IC50 [1]: 450 nM

Compound: C=CC(=O)Nc1cc(OCCCC(C)=O)c2c(c1)C(=O)c1cccc(OCCCC(C)=O)c1C2=O
- IC50 [1]: 6210 nM

Compound: O=C(CCl)Nc1cc(OCCO)c2c(c1)C(=O)c1cccc(OCCO)c1C2=O
- IC50 [1]: 740 nM
